From patent US20250152781A1, “TISSUE ENGINEERING AND DRUG DELIVERY DEVICE” (Ohio State Innovation Foundation, priority 2022, published 2025)

Assay: Diffusive release of Rose Bengal through sintered electrospun polymer capsule wall in PBS
Format: physicochemical
Excerpt: To create a generic advantage that dramatically enhances the long-term drug delivery properties of electrospun scaffolds beyond those currently available via electrospinning alone. A little-known aspect of materials processing is that the shrinkage of high surface area polymers (e.g., in electrospun or electrosprayed form) can be used to provide higher density polymers. In the context of electrospun tissue engineering scaffolds, this phenomenon can be used to create relatively dense material from polymer compositions that would be difficult—if not impossible—to create via extrusion. The relatively dense material then creates a solid barrier through which diffusion of the internally-held drug can occur. The simplest version of this process involves creating a hollow tube via electrospinning (FIG. 1), sintering it to full or nearly-full density (thus eliminating open porosity, see FIG. 2), and then inserting the drug of interest contained with the appropriate solvent. Once this is complete, the ends of the tube can be heat-sealed (FIG. 3) using commonly available, purpose-built equipment designed and manufactured for the purpose of heat-sealing plastics of nearly any chemical composition. […]

drug release rate of Rose Bengal through 95% PCL-5% PET wall (95% PCL-5% polyethylene terephthalate wall formed by electrospinning then sintering to full density, after 30+ days of release (FIG. 5)): above 10 μg/day | release rate of Rose Bengal through PCL capsule wall (PCL wall formed by electrospinning then sintering to full density, after 120 days of exposure to 37° C. phosphate-buffered saline (FIG. 4)): 9 to 10 µg/day
Structure (SMILES): O=C([O-])c1c(Cl)c(Cl)c(Cl)c(Cl)c1-c1c2cc(I)c(=O)c(I)c-2oc2c(I)c([O-])c(I)cc12.[Na+].[Na+] [Rose Bengal]
